Measurements taken from a melting point compilation (Tetko et al.; mined from patent text by program, amines drawn as free bases though some values may be those of a salt).

First: COc1ccc(Cn2c(=O)[nH]c3cc(Cl)ccc3c2=O)cc1
Second: COc1ccc(S(=O)(=O)Oc2ccc3[nH]cc(C4CCN(C)CC4)c3c2)cc1
The melting point of the first is higher: 254 to 256 °C for the first, 186 to 187 °C for the second.

Compared with `Cc1[nH]c(-c2nc3ccc(C(=O)c4ccccc4)cc3[nH]2)c(C)c1C(=O)O`, `O=C(O)c1ccc(C=CC(=O)N2CCc3c([nH]c4ccccc34)C2c2ccc3c(c2)OCO3)cc1` (stereo not drawn) is lower in melting point: > 300 °C for the first, 254 to 256 °C for the second.

First: Cc1c(-c2ccc(F)cc2)oc2c(-c3ccc(S(C)(=O)=O)cc3)c(-c3ccc(F)cc3)nn12
Second: Cc1ccc(S(=O)(=O)n2c(-c3cn(C)c4ccc(-c5ccncc5)cc34)cc3cccnc32)cc1
The melting point of the first is higher: 289 to 291 °C for the first, 82 to 85 °C for the second.

First: COc1cccc(C(=O)Nc2ccc(N3CCN(Cc4cccc(C#N)c4)CC3)cc2)c1OCc1ccc(C(F)(F)F)cc1
Second: COc1ccc(-c2ccc(C(=O)Nc3cc4ncc(CN5CCCC5)cc4cc3F)c(F)c2)cc1
The melting point of the first is lower: 118 to 120 °C for the first, 174 to 176 °C for the second.

Compared with `O=C1NC(=O)c2c1cc1ccc3c(c1c2-c1ccc(OCc2ccccc2)cc1)OCO3`, `O=C(O)CCCCCNC(=O)c1cc2cc3c(cc2c2cc(OCc4ccccc4)ccc12)OCO3` is lower in melting point: 265 to 267 °C for the first, 198 to 200 °C for the second.

First: Cc1ccc2cc(NC(=O)c3cccc(OCc4ccc(N)nc4)c3)ccc2n1
Second: COc1ccc(C(=O)Nc2ccc(C(C)(C)C#N)c(-c3cccc(Cl)c3)c2)cc1OC
The melting point of the first is higher: 189 to 192 °C for the first, 144 to 146 °C for the second.

First: CCOC(=O)C(C)(C)n1c(=O)[nH]c2ccsc2c1=O
Second: CCOC(=O)C(C(=O)OCC)=C1CN(C)C(=O)c2ccccc2N1
The melting point of the first is higher: 156 to 157 °C for the first, 139 °C for the second.

Compared with `COC(=O)[C@]1(C)Cc2c([nH]c3ccc(Br)cc23)[C@@H](c2cccc(O)c2)N1` (racemic), `CCOc1ccc2c(c1)CCc1c(cccc1C(=O)O)S2` is lower in melting point: 240 to 241 °C for the first, 165 to 167 °C for the second.

First: COC(=O)Cn1ccc2ccc(-c3nccc(-c4ccccc4)n3)cc21
Second: CC(=O)NCCC1CCc2ccn3nc(-c4ccccc4)cc3c21 (stereo not drawn)
The melting point of the first is lower: 111 °C for the first, 159 to 160 °C for the second.

First: COc1cc(N)c(Cl)cc1C(=O)NCC1CCN(CCCCCC(=O)c2c(C)oc3ccccc23)CC1
Second: COC(=O)[C@H](c1ccccc1Cl)N1CCc2sc(OC(=O)c3cccnc3)cc2C1
The melting point of the first is higher: 133 to 135 °C for the first, 92 to 94 °C for the second.

Compared with `O=[N+]([O-])c1ccc(NCCc2c[nH]cn2)nc1`, `O=C(O)c1cc([N+](=O)[O-])ccc1OC(F)(F)F` is lower in melting point: 162 to 163 °C for the first, 134 to 135 °C for the second.

First: Cc1oc(-c2ccccc2)nc1CCOc1ccc(C[C@H](NC(=O)C(F)=Cc2ccccc2)C(=O)O)cc1Br
Second: O=C(NC(CCc1ccccc1)C(=O)Nc1n[nH]c(=S)s1)OCC1c2ccccc2-c2ccccc21 (stereo not drawn)
The melting point of the first is higher: 243 to 245 °C for the first, 186 to 187 °C for the second.

Compared with `C[C@@H](c1ncncc1F)[C@@](Cn1cncn1)(OP(=O)(OCc1c(F)cccc1Cl)OCc1c(F)cccc1Cl)c1ccc(F)cc1F`, `COc1ccc(S(=O)(=O)N(CCCO)c2ccc(Cl)cc2Cc2c(F)cccc2F)cc1OC` is lower in melting point: 140 to 141 °C for the first, 138 °C for the second.

First: Cc1cc(Nc2cccc(C(F)(F)F)c2)nc(-n2nc(C)cc2C)n1
Second: COC(=O)C(C)(C)Sc1cccc(OC(=O)Nc2ccc(C(F)(F)F)cc2)c1
The melting point of the first is higher: 130 to 134 °C for the first, 66 to 67 °C for the second.

Compared with `CC(C)(C)OC(=O)N[C@@H]1C(=O)N(C(=O)C(=O)OC(C)(C)C)[C@@H]1CCC(=O)CO[Si](C)(C)C(C)(C)C`, `CN1OCC(C(O)c2cc(C(C)(C)C)c(O)c(C(C)(C)C)c2)C1=O` (stereo not drawn) is higher in melting point: 102 to 103 °C for the first, 137 to 140 °C for the second.

First: O=C(O)c1cc(O)c(O)c([N+](=O)[O-])c1
Second: Cc1cc([N+](=O)[O-])c(Cl)c([N+](=O)[O-])c1C(=O)O
The melting point of the first is higher: 224 to 226 °C for the first, 189 to 192 °C for the second.

Compared with `CC(C)(C)c1ccc(CCC(O)CC2CCCC2)cc1NC(=O)CC1c2ccccc2Oc2ccccc21` (stereo not drawn), `Cc1ccccc1CNC(=S)c1ccc2c(c1)N(C(C)CN1CCCC1)c1ccccc1S2` (racemic) is lower in melting point: 142 to 143 °C for the first, 110 °C for the second.

First: N#Cc1c(-c2cccs2)[nH]c(C(F)(F)F)c1Cl
Second: N#Cc1cc(I)c(N)c(C(F)(F)F)c1
The melting point of the first is higher: 221 to 223 °C for the first, 86 to 88 °C for the second.

Compared with `CCOC(=O)C(C#N)C(=O)c1cccn1C` (stereo not drawn), `CCOC(=O)CC(=O)NCc1ccccc1` is lower in melting point: 74 to 77 °C for the first, 50 to 52 °C for the second.

First: N#Cc1nn(-c2c(Cl)cc(C(F)(F)F)cc2Cl)c(N)c1OC(F)F
Second: Cn1nc(-c2cc(C(=O)O)c(Cl)cc2F)c(Cl)c1C(F)(F)F
The melting point of the first is lower: 152 to 154 °C for the first, 179 to 181 °C for the second.

First: CCOC(=O)c1cnn2c(-c3ccc(CC)cc3)ccnc12
Second: CCCCc1nc2cccc(C(=O)OC)c2n1Cc1ccc(-c2ccccc2C#N)cc1
The melting point of the first is lower: 101 to 103 °C for the first, 123 to 124 °C for the second.

First: COc1ccc(N2CC(=O)NC(=O)N2)cc1C
Second: COc1ccc(C#N)c(F)c1OC
The melting point of the first is higher: 69 to 71 °C for the first, 64 to 65 °C for the second.

First: CN(Cc1ccccc1)c1nc(N2CCOCC2)nc(-n2c(C(F)F)nc3ccccc32)n1
Second: CNc1ccc(Nc2nc(N3CCOCC3)nc(-n3c(C(F)F)nc4c(OC)cccc43)n2)cn1
The melting point of the first is lower: 147 to 150 °C for the first, 218 to 221 °C for the second.

First: CN(CCc1ccccc1)C(=O)Cn1cc(C=O)c2c(OCc3ccccc3)cccc21
Second: BrCCc1ccc([Si](c2ccccc2)(c2ccccc2)c2ccc(CCBr)cc2)cc1
The melting point of the first is lower: 120 to 122 °C for the first, 220 °C for the second.

Compared with `OCC1OC(n2cnc3c(NCC(c4ccccc4)c4ccccc4)nc(Cl)nc32)C(O)C1O` (stereo not drawn), `OC(CSc1ccnc2ccccc12)c1ccc2ccccc2c1` (stereo not drawn) is higher in melting point: 120 to 123 °C for the first, 170 to 172 °C for the second.

Compared with `COCc1nc2c3c(ccn2c1C)[C@@H](O)[C@H](O)[C@@H](c1ccccc1)N3`, `CON(Cc1ccc(F)cc1)C(=O)c1nc2n(c(=O)c1OCc1ccccc1)CCOC2(C)C` is higher in melting point: 102 to 104 °C for the first, 141 °C for the second.

First: CN(Cc1ccccc1O)c1nc(N(C)Cc2ccccc2O)nc(N(C)Cc2ccccc2O)n1
Second: Cc1nnc(-c2ccc3occ(-c4ccc(S(=O)Cc5ccccc5C#N)cc4)c3c2)o1 (stereo not drawn)
The melting point of the first is higher: 199 to 200 °C for the first, 171 to 172 °C for the second.

First: CNC(=O)NCCn1c(-c2ccc(N3CCOCC3)cc2)csc1=Nc1ccc(F)cc1
Second: CN(C)CCNC(=O)Cc1ccc2ccn(C3CCN(CCc4ccc(F)cc4)CC3)c2c1
The melting point of the first is higher: 191 to 194 °C for the first, 112 to 113 °C for the second.

Compared with `CC(C)c1cc(C(=O)Nc2ccc(C(=O)O)o2)oc1C(C)C`, `COc1cc2c(c3oc(C(=O)O)cc(=O)c13)CCC(C)(C)O2` is higher in melting point: 169 to 171 °C for the first, 225 to 226 °C for the second.

Compared with `CCCOc1ccc(C=CC(=O)c2c(O)cc(OC)cc2OC)cc1`, `CCCCOc1ccc2nc(C(C)=O)c(O)cc2c1` is lower in melting point: 96.7 °C for the first, 71 to 73 °C for the second.

First: Cc1c(NC(=O)CC(C)(C)C)cc2c(c1C)OC(C)(C)C2Cc1ccc(C(C)C)cc1 (stereo not drawn)
Second: CC(C)(C)OC(=O)N1CC(CCl)c2c1ccc1ccc(C#N)cc21 (stereo not drawn)
The melting point of the first is lower: 130 to 132 °C for the first, 138 to 140 °C for the second.

First: c1cc(-c2cnco2)cc(-c2ncc(-c3cccc(-c4cnc(-c5cccc(-c6cnco6)c5)o4)n3)o2)c1
Second: COC(=O)c1ccc(C)c(-n2c(C)cc(OCc3ccccc3CNC(=O)Nc3cc(C(C)(C)C)nn3-c3cccc(OCCO)c3)c(Cl)c2=O)c1
The melting point of the first is higher: 254 to 256 °C for the first, 147 to 148 °C for the second.

`OC(COc1ccc(Cl)cc1)(Cn1cncn1)c1ccc(Br)s1` (stereo not drawn) and `CCCOc1ccc(C(CC(N)=O)N2C(=O)c3ccccc3C2=O)cc1` (stereo not drawn) cannot be ordered by melting point: 108 to 112 °C for the first, 110 °C for the second.

First: O=C1c2ccccc2OCOc2ccccc21
Second: Nc1ccccc1NC(=O)/C=C/c1ccccc1I
The melting point of the first is lower: 93 to 95 °C for the first, 194 to 196 °C for the second.

First: NC(=O)C1Oc2cc(Cl)c(S(=O)(=O)c3ccc(Cl)cc3)cc2O1 (stereo not drawn)
Second: CN(CCN(O)C(N)=O)Cc1cccc(Oc2cc(Cl)cc(Cl)c2)c1
The melting point of the first is higher: 240 to 242 °C for the first, 111 to 113 °C for the second.

Compared with `COc1ccc(OC)c2c1C[C@](O)(CC#N)CC21SCCS1`, `CCOC(=O)c1cc2cc(OC)c(OC)cc2s1` is lower in melting point: 173 to 174 °C for the first, 84 to 85 °C for the second.

Compared with `CCCCCCCCCCCCCCCCC(OC)C(=O)OC` (stereo not drawn), `CCCCCS(=O)(=O)NC(=O)CCc1ccc(OCCOC)cc1Oc1ncc(C(F)(F)F)cc1Cl` is higher in melting point: 33 to 36 °C for the first, 140 to 142 °C for the second.

First: Cc1nnc(-c2cc(Cl)c(Cl)c(Cl)n2)s1
Second: Cc1cc(C)c2oc(S)nc2c1C
The melting point of the first is higher: 148 to 150 °C for the first, 146 to 147 °C for the second.

First: OCCc1ccc(OCC2CO2)cc1 (stereo not drawn)
Second: CNC(=O)N1CC(Oc2ccc(C(N)=O)cc2)C1
The melting point of the first is lower: 56 to 58.5 °C for the first, 208 to 210 °C for the second.

First: CC(=O)OC1CCC2(C)C(=CCC3C2CCC2(C)C(c4cccnc4)=CCC32)C1 (stereo not drawn)
Second: CC(CC(F)(F)CC(C)(C)O)C1CCC2C3CC=C4CC(O)CCC4(C)C3CCC12C (stereo not drawn)
The melting point of the first is lower: 144 to 145 °C for the first, 148 to 149 °C for the second.

First: O=c1cc2c3ccccc3sn2c2ccc(Cl)cc12
Second: C=C1N(S(=O)(=O)c2ccc(C)cc2)C(=O)OC12CCN(Cc1ccccc1)CC2
The melting point of the first is higher: > 350 °C for the first, 157 to 158 °C for the second.

First: CCc1oc2ccccc2c1C(C)(C)C(N)=NO
Second: CSc1nccc(C(=NO)C(=O)c2cccc(Br)c2)n1
The melting point of the first is lower: 118 to 120 °C for the first, 156 to 158 °C for the second.

First: COC(=O)[C@@H]1[C@@H](O)CCN1C(=O)Nc1ccc(C#N)c(Cl)c1C
Second: COCC(=O)N[C@@H]1c2cc(C#N)ccc2OC(C)(C)[C@H]1O (relative stereo)
The melting point of the first is higher: 189 to 191 °C for the first, 162 to 163 °C for the second.

First: CCOCc1nc2c(N)nc3cc(O)ccc3c2n1CC(C)(C)NC(=O)NC(C)C
Second: CN1CCCC1=NC(=O)Nc1ccc(Cl)c(Cl)c1
The melting point of the first is higher: 163 to 168 °C for the first, 160 °C for the second.

First: Oc1ncccc1C1(O)CCN(CC23CC(c4ccccc42)c2ccccc23)CC1
Second: OC(=S)CCCc1nn(-c2ccccc2)c2c1CCCC2
The melting point of the first is higher: 195 to 199 °C for the first, 105 to 106 °C for the second.

First: Cc1cc(=O)c2c([nH]1)CCOC2
Second: O=C1CNC=Nc2[nH]cnc21
The melting point of the first is higher: > 285 °C for the first, 260 °C for the second.

First: COC(=S)c1cc(N)ccc1C
Second: COc1cc(I)c(F)cc1Cl
The melting point of the first is higher: 96 to 98 °C for the first, 90 to 94 °C for the second.

Compared with `CN(Cc1ccco1)Cn1cc(C#N)c(-c2cccc(Cl)c2Cl)c1`, `Nc1c(Cl)ncnc1N[C@@H]1C=C[C@H](CO)C1` is higher in melting point: 79 to 80 °C for the first, 144 to 146 °C for the second.

First: CCC(=O)NC1C=CC(CO)C1 (stereo not drawn)
Second: COc1cc2ncc(OC3CCC(OC)CC3)nc2cc1OC (stereo not drawn)
The melting point of the first is lower: 67 to 68 °C for the first, 85 to 90 °C for the second.
